Test results reported in the NIST ThermoML archive (doi:10.1021/je060411g).
Numbers after ± are expanded uncertainties.

Assay: molar heat capacity at constant pressure
Conditions: 101.33 kPa

CC(C)(C)CO [2,2-dimethyl-1-propanol]
molar heat capacity at constant pressure (155.06 K, Crystal 2, Vacuum adiabatic calorimetry): 99.89 ± 2 J/K/mol | molar heat capacity at constant pressure (157.04 K, Crystal 2, Vacuum adiabatic calorimetry): 100.86 ± 2 J/K/mol | molar heat capacity at constant pressure (159.01 K, Crystal 2, Vacuum adiabatic calorimetry): 101.85 ± 2 J/K/mol | molar heat capacity at constant pressure (160 K, Crystal 2): 102.4 ± 2.7 J/K/mol | molar heat capacity at constant pressure (160.99 K, Crystal 2, Vacuum adiabatic calorimetry): 102.94 ± 2.1 J/K/mol | molar heat capacity at constant pressure (162.97 K, Crystal 2, Vacuum adiabatic calorimetry): 104.04 ± 2.1 J/K/mol | molar heat capacity at constant pressure (164.94 K, Crystal 2, Vacuum adiabatic calorimetry): 104.98 ± 2.1 J/K/mol | molar heat capacity at constant pressure (166.92 K, Crystal 2, Vacuum adiabatic calorimetry): 106.04 ± 2.1 J/K/mol | molar heat capacity at constant pressure (168.9 K, Crystal 2, Vacuum adiabatic calorimetry): 107.14 ± 2.1 J/K/mol | molar heat capacity at constant pressure (170 K, Crystal 2): 107.8 ± 2.8 J/K/mol | molar heat capacity at constant pressure (170.88 K, Crystal 2, Vacuum adiabatic calorimetry): 108.23 ± 2.2 J/K/mol | molar heat capacity at constant pressure (172.86 K, Crystal 2, Vacuum adiabatic calorimetry): 109.18 ± 2.2 J/K/mol | molar heat capacity at constant pressure (174.83 K, Crystal 2, Vacuum adiabatic calorimetry): 110.28 ± 2.2 J/K/mol | molar heat capacity at constant pressure (176.81 K, Crystal 2, Vacuum adiabatic calorimetry): 111.23 ± 2.2 J/K/mol | molar heat capacity at constant pressure (178.79 K, Crystal 2, Vacuum adiabatic calorimetry): 112.41 ± 2.3 J/K/mol | molar heat capacity at constant pressure (180 K, Crystal 2): 113.1 ± 2.9 J/K/mol | molar heat capacity at constant pressure (180.77 K, Crystal 2, Vacuum adiabatic calorimetry): 113.61 ± 2.3 J/K/mol | molar heat capacity at constant pressure (182.75 K, Crystal 2, Vacuum adiabatic calorimetry): 115.04 ± 2.3 J/K/mol | molar heat capacity at constant pressure (184.73 K, Crystal 2, Vacuum adiabatic calorimetry): 115.99 ± 2.3 J/K/mol | molar heat capacity at constant pressure (186.72 K, Crystal 2, Vacuum adiabatic calorimetry): 117.16 ± 2.4 J/K/mol | molar heat capacity at constant pressure (188.7 K, Crystal 2, Vacuum adiabatic calorimetry): 118.27 ± 2.4 J/K/mol | molar heat capacity at constant pressure (190 K, Crystal 2): 119.2 ± 3 J/K/mol | molar heat capacity at constant pressure (190.69 K, Crystal 2, Vacuum adiabatic calorimetry): 119.62 ± 2.4 J/K/mol | molar heat capacity at constant pressure (192.68 K, Crystal 2, Vacuum adiabatic calorimetry): 120.83 ± 2.4 J/K/mol | molar heat capacity at constant pressure (194.67 K, Crystal 2, Vacuum adiabatic calorimetry): 122.08 ± 2.5 J/K/mol | molar heat capacity at constant pressure (196.66 K, Crystal 2, Vacuum adiabatic calorimetry): 123.36 ± 2.5 J/K/mol | molar heat capacity at constant pressure (198.66 K, Crystal 2, Vacuum adiabatic calorimetry): 124.74 ± 2.5 J/K/mol | molar heat capacity at constant pressure (200 K, Crystal 2): 125.7 ± 3.1 J/K/mol | molar heat capacity at constant pressure (200.66 K, Crystal 2, Vacuum adiabatic calorimetry): 126.14 ± 2.5 J/K/mol | molar heat capacity at constant pressure (202.67 K, Crystal 2, Vacuum adiabatic calorimetry): 127.38 ± 2.6 J/K/mol | molar heat capacity at constant pressure (204.67 K, Crystal 2, Vacuum adiabatic calorimetry): 128.75 ± 2.6 J/K/mol | molar heat capacity at constant pressure (206.68 K, Crystal 2, Vacuum adiabatic calorimetry): 130.08 ± 2.6 J/K/mol | molar heat capacity at constant pressure (208.7 K, Crystal 2, Vacuum adiabatic calorimetry): 131.55 ± 2.6 J/K/mol | molar heat capacity at constant pressure (210 K, Crystal 2): 132.5 ± 3.3 J/K/mol | molar heat capacity at constant pressure (210.71 K, Crystal 2, Vacuum adiabatic calorimetry): 132.96 ± 2.7 J/K/mol | molar heat capacity at constant pressure (212.71 K, Crystal 2, Vacuum adiabatic calorimetry): 134.53 ± 2.7 J/K/mol | molar heat capacity at constant pressure (214.72 K, Crystal 2, Vacuum adiabatic calorimetry): 136.27 ± 2.7 J/K/mol | molar heat capacity at constant pressure (216.71 K, Crystal 2, Vacuum adiabatic calorimetry): 138.22 ± 2.8 J/K/mol | molar heat capacity at constant pressure (220 K, Crystal 2): 145 ± 3.5 J/K/mol | molar heat capacity at constant pressure (237.42 K, Crystal 1): 158.16 ± 3.8 J/K/mol | molar heat capacity at constant pressure (239.45 K, Crystal 1): 159.61 ± 3.8 J/K/mol | molar heat capacity at constant pressure (240 K, Crystal 1): 160.1 ± 3.8 J/K/mol | molar heat capacity at constant pressure (241.42 K, Crystal 1): 161.17 ± 3.8 J/K/mol | molar heat capacity at constant pressure (243.4 K, Crystal 1): 162.58 ± 3.8 J/K/mol | molar heat capacity at constant pressure (245.38 K, Crystal 1): 163.87 ± 3.9 J/K/mol | molar heat capacity at constant pressure (247.36 K, Crystal 1): 165.12 ± 3.9 J/K/mol | molar heat capacity at constant pressure (249.33 K, Crystal 1): 166.8 ± 3.9 J/K/mol | molar heat capacity at constant pressure (250 K, Crystal 1): 167.3 ± 3.9 J/K/mol | molar heat capacity at constant pressure (251.31 K, Crystal 1): 168.24 ± 4 J/K/mol | molar heat capacity at constant pressure (253.28 K, Crystal 1): 169.62 ± 4 J/K/mol | molar heat capacity at constant pressure (255.26 K, Crystal 1): 171.23 ± 4 J/K/mol | molar heat capacity at constant pressure (257.24 K, Crystal 1): 172.85 ± 4 J/K/mol | molar heat capacity at constant pressure (259.21 K, Crystal 1): 174.64 ± 4.1 J/K/mol | molar heat capacity at constant pressure (260 K, Crystal 1): 175.3 ± 4.1 J/K/mol | molar heat capacity at constant pressure (261.18 K, Crystal 1): 176.19 ± 4.1 J/K/mol | molar heat capacity at constant pressure (263.15 K, Crystal 1): 177.74 ± 4.2 J/K/mol | molar heat capacity at constant pressure (265.1 K, Crystal 1): 179.42 ± 4.2 J/K/mol | molar heat capacity at constant pressure (267.05 K, Crystal 1): 181.32 ± 4.2 J/K/mol | molar heat capacity at constant pressure (268.99 K, Crystal 1): 183.18 ± 4.3 J/K/mol | molar heat capacity at constant pressure (270 K, Crystal 1): 184 ± 4.3 J/K/mol | molar heat capacity at constant pressure (270.93 K, Crystal 1): 184.74 ± 4.3 J/K/mol | molar heat capacity at constant pressure (272.86 K, Crystal 1): 186.95 ± 4.3 J/K/mol | molar heat capacity at constant pressure (274.77 K, Crystal 1): 188.7 ± 4.4 J/K/mol | molar heat capacity at constant pressure (276.68 K, Crystal 1): 190.91 ± 4.4 J/K/mol | molar heat capacity at constant pressure (278.57 K, Crystal 1): 192.85 ± 4.5 J/K/mol | molar heat capacity at constant pressure (280 K, Crystal 1): 194.5 ± 4.5 J/K/mol | molar heat capacity at constant pressure (280.46 K, Crystal 1): 195.04 ± 4.5 J/K/mol | molar heat capacity at constant pressure (282.33 K, Crystal 1): 197.11 ± 4.5 J/K/mol | molar heat capacity at constant pressure (284.2 K, Crystal 1): 199.17 ± 4.6 J/K/mol | molar heat capacity at constant pressure (286.05 K, Crystal 1): 201.41 ± 4.6 J/K/mol | molar heat capacity at constant pressure (287.9 K, Crystal 1): 203.48 ± 4.7 J/K/mol | molar heat capacity at constant pressure (289.73 K, Crystal 1): 205.72 ± 4.7 J/K/mol | molar heat capacity at constant pressure (290 K, Crystal 1): 206 ± 4.7 J/K/mol | molar heat capacity at constant pressure (291.56 K, Crystal 1): 207.85 ± 4.8 J/K/mol | molar heat capacity at constant pressure (293.37 K, Crystal 1): 211.16 ± 4.8 J/K/mol | molar heat capacity at constant pressure (295.17 K, Crystal 1): 213.27 ± 4.9 J/K/mol | molar heat capacity at constant pressure (298.15 K, Crystal 1): 214.3 ± 4.9 J/K/mol | molar heat capacity at constant pressure (300 K, Crystal 1): 216.4 ± 4.9 J/K/mol | molar heat capacity at constant pressure (310 K, Crystal 1): 227.8 ± 5.2 J/K/mol | molar heat capacity at constant pressure (328.08 K, Liquid): 267.44 ± 6 J/K/mol | molar heat capacity at constant pressure (329.23 K, Liquid): 268.95 ± 6 J/K/mol | molar heat capacity at constant pressure (330 K, Liquid): 256.6 ± 5.7 J/K/mol | molar heat capacity at constant pressure (330.33 K, Liquid): 267.74 ± 6 J/K/mol | molar heat capacity at constant pressure (330.38 K, Liquid): 270.44 ± 6 J/K/mol | molar heat capacity at constant pressure (331.53 K, Liquid): 271.12 ± 6.1 J/K/mol | molar heat capacity at constant pressure (331.59 K, Liquid): 268.59 ± 6 J/K/mol | molar heat capacity at constant pressure (332.68 K, Liquid): 271.99 ± 6.1 J/K/mol | molar heat capacity at constant pressure (332.84 K, Liquid): 269.67 ± 6 J/K/mol | molar heat capacity at constant pressure (333.82 K, Liquid): 273.19 ± 6.1 J/K/mol | molar heat capacity at constant pressure (334.1 K, Liquid): 271.2 ± 6 J/K/mol | molar heat capacity at constant pressure (334.97 K, Liquid): 273.8 ± 6.1 J/K/mol | molar heat capacity at constant pressure (335.35 K, Liquid): 272.07 ± 6.1 J/K/mol | molar heat capacity at constant pressure (336.11 K, Liquid): 274.9 ± 6.1 J/K/mol | molar heat capacity at constant pressure (336.6 K, Liquid): 273.27 ± 6.1 J/K/mol | molar heat capacity at constant pressure (337.25 K, Liquid): 276.23 ± 6.2 J/K/mol | molar heat capacity at constant pressure (337.86 K, Liquid): 274.28 ± 6.1 J/K/mol | molar heat capacity at constant pressure (338.39 K, Liquid): 277.22 ± 6.2 J/K/mol | molar heat capacity at constant pressure (339.12 K, Liquid): 275.37 ± 6.1 J/K/mol | molar heat capacity at constant pressure (339.52 K, Liquid): 278.09 ± 6.2 J/K/mol | molar heat capacity at constant pressure (340 K, Liquid): 277.1 ± 6.2 J/K/mol | molar heat capacity at constant pressure (340.38 K, Liquid): 276.53 ± 6.2 J/K/mol | molar heat capacity at constant pressure (340.66 K, Liquid): 278.87 ± 6.2 J/K/mol | molar heat capacity at constant pressure (341.64 K, Liquid): 277.24 ± 6.2 J/K/mol | molar heat capacity at constant pressure (341.79 K, Liquid): 279.67 ± 6.2 J/K/mol | molar heat capacity at constant pressure (342.91 K, Liquid): 278.19 ± 6.2 J/K/mol | molar heat capacity at constant pressure (342.92 K, Liquid): 280.81 ± 6.2 J/K/mol | molar heat capacity at constant pressure (344.05 K, Liquid): 281.29 ± 6.3 J/K/mol | molar heat capacity at constant pressure (344.18 K, Liquid): 279.29 ± 6.2 J/K/mol | molar heat capacity at constant pressure (345.18 K, Liquid): 282 ± 6.3 J/K/mol | molar heat capacity at constant pressure (345.46 K, Liquid): 280.32 ± 6.2 J/K/mol | molar heat capacity at constant pressure (346.75 K, Liquid): 281.22 ± 6.2 J/K/mol | molar heat capacity at constant pressure (348.04 K, Liquid): 282.21 ± 6.3 J/K/mol | molar heat capacity at constant pressure (349.35 K, Liquid): 283.25 ± 6.3 J/K/mol | molar heat capacity at constant pressure (350 K, Liquid): 283.8 ± 6.3 J/K/mol | molar heat capacity at constant pressure (350.67 K, Liquid): 284.33 ± 6.3 J/K/mol | molar heat capacity at constant pressure (352.01 K, Liquid): 285.41 ± 6.3 J/K/mol | molar heat capacity at constant pressure (353.37 K, Liquid): 286.57 ± 6.4 J/K/mol | molar heat capacity at constant pressure (354.74 K, Liquid): 285.99 ± 6.3 J/K/mol | molar heat capacity at constant pressure (356.13 K, Liquid): 288.33 ± 6.4 J/K/mol | molar heat capacity at constant pressure (357.55 K, Liquid): 289.27 ± 6.4 J/K/mol | molar heat capacity at constant pressure (358.99 K, Liquid): 289.94 ± 6.4 J/K/mol | molar heat capacity at constant pressure (360 K, Liquid): 290.2 ± 6.4 J/K/mol | molar heat capacity at constant pressure (360.45 K, Liquid): 290.3 ± 6.4 J/K/mol | molar heat capacity at constant pressure (361.93 K, Liquid): 290.05 ± 6.4 J/K/mol | molar heat capacity at constant pressure (363.41 K, Liquid): 288.87 ± 6.4 J/K/mol | molar heat capacity at constant pressure (364.86 K, Liquid): 286.3 ± 6.3 J/K/mol | molar heat capacity at constant pressure (366.24 K, Liquid): 283 ± 6.3 J/K/mol | molar heat capacity at constant pressure (367.51 K, Liquid): 296.63 ± 6.6 J/K/mol | molar heat capacity at constant pressure (368.71 K, Liquid): 295.14 ± 6.5 J/K/mol | molar heat capacity at constant pressure (369.9 K, Liquid): 295.38 ± 6.5 J/K/mol | molar heat capacity at constant pressure (370 K, Liquid): 295.4 ± 6.5 J/K/mol | molar heat capacity at constant pressure (371.09 K, Liquid): 296.21 ± 6.6 J/K/mol | molar heat capacity at constant pressure (372.27 K, Liquid): 296.96 ± 6.6 J/K/mol | molar heat capacity at constant pressure (373.45 K, Liquid): 297.66 ± 6.6 J/K/mol | molar heat capacity at constant pressure (374.63 K, Liquid): 298.2 ± 6.6 J/K/mol | molar heat capacity at constant pressure (375.81 K, Liquid): 298.87 ± 6.6 J/K/mol | molar heat capacity at constant pressure (376.99 K, Liquid): 299.38 ± 6.6 J/K/mol | molar heat capacity at constant pressure (378.17 K, Liquid): 299.76 ± 6.6 J/K/mol | molar heat capacity at constant pressure (379.34 K, Liquid): 300.28 ± 6.6 J/K/mol | molar heat capacity at constant pressure (380.52 K, Liquid): 300.53 ± 6.6 J/K/mol
